In patent EP0761679A1, “N-Butylsulfonate esters of estrogens” (ELI LILLY AND COMPANY, priority 1995, dated 1997):

Test system: ovariectomized rat
Assay: ovariectomized (ovex) rat model, uterine wet weight after four days of oral treatment
Type: in vivo, Sprague Dawley rats
Settings: 96 h, 0.1 mg/kg P.O. (gavage in 0.5 mL of 1% carboxymethylcellulose suspension), ovariectomized female rats, read-out: Uterine weight as percent control @ 0.1 mg/kg P.O.
Method: Seventy-five day old female Sprague Dawley rats (weight range of 225-275 g) were obtained from Charles River Laboratories (Portage, MI). The animals were either bilaterally ovariectomized or exposed to a sham surgical procedure at Charles River Laboratories, and then shipped after one week. They were housed in groups of three and had ad libitum access to food and water. Room temperature was maintained at 22.2° C with 40% relative humidity. The photo-period was 12 hours of light and 12 hours of darkness. One week after arrival (thus, 14 days post-ovariectomy), the rats were treated with vehicle, 17-α-ethinyl estradiol, parent hydroxy estrogens, or a compound of formula I was initiated. After four days of treatment, blood was collected by cardiac puncture, the animals were sacrificed by carbon dioxide asphyxiation and the uteri were removed and wet weight determined. […] All compounds were given by oral dosage (gavage in 0.5 mL of 1% carboxymethylcellulose suspension). For comparison purposes, the data represented are for 0.1 mg/kg for all compounds. The positive control was 0.1 mg/kg of 17-α-ethinyl estradiol, a known, orally available estrogen.

SMILES	response vs control in vivo at 0.1 mg/kg [%]
CCCCS(=O)(=O)Oc1ccc2c(c1)CC=C1[C@@H]2CC[C@]2(C)C(=O)CC[C@@H]12 [3-n-butylsulfonoyl equilin]	119
C[C@]12CC[C@H]3C(=CCc4cc(O)ccc43)[C@@H]1CCC2=O [Equilin]	47
C[C@]12CC[C@@H]3c4ccc(O)cc4CC[C@H]3[C@@H]1CC[C@@H]2O [17-β-estradiol]	43
C[C@]12CC[C@@H]3c4ccc(OS(=O)(=O)c5ccccc5)cc4CC[C@H]3[C@@H]1CCC2=O [3-phenylsulfonoyl estrone]	10
C[C@]12CC[C@@H]3c4ccc(OS(C)(=O)=O)cc4CC[C@H]3[C@@H]1CC[C@@H]2O [3-methanesulfonoyl-17-β-estradiol]	17
C[C@]12CC[C@@H]3c4ccc(OS(=O)(=O)c5ccccc5)cc4CC[C@H]3[C@@H]1CC[C@@H]2O [3-phenylsulfonoyl-17-β-estradiol]	0
C[C@]12CC[C@@H]3c4ccc(O)cc4CC[C@H]3[C@@H]1CCC2=O [Estrone]	35
C[C@]12CC[C@@H]3c4ccc(OS(C)(=O)=O)cc4CC[C@H]3[C@@H]1CC[C@@H]2OS(C)(=O)=O [3,17-β-di-methanesulfonoyl estradiol]	0
CCCCS(=O)(=O)Oc1ccc2c(c1)CC[C@@H]1[C@@H]2CC[C@]2(C)[C@@H](OS(=O)(=O)CCCC)CC[C@@H]12 [3,17-β-di-n-butylsulfonoyl estradiol]	112
CCCCS(=O)(=O)Oc1ccc2c(c1)CC[C@@H]1[C@@H]2CC[C@]2(C)C(=O)CC[C@@H]12 [3-n-butylsulfonyl estrone, 3-n-butylsulfonoyl estrone]	67
C[C@]12CC[C@@H]3c4ccc(OS(C)(=O)=O)cc4CC[C@H]3[C@@H]1CCC2=O [3-methanesulfonoyl estrone]	0
